The test system of data set [1] is TPCK-treated trypsin (Worthington). Put plainly: 0.01 mg mL^–1 trypsin (1 : 100 trypsin : proHD6 (w/w)) in 100 mM Tris–HCl, 20 mM CaCl2, pH 8.0. The following applies: room temperature, up to 120 min.
A short description of data set [2]: intestinal luminal aspirates obtained by endoscopy (ileal fluid). As to conditions: human.
Data set [3] concerns the molecule itself. As to the kind of experiment: AUC; sedimentation equilibrium; proHD6 30, 60 and 120 μM in 10 mM sodium phosphate pH 7.4, 30 000, 36 000 and 42 000 rpm, 20 °C, global fit with SEDPHAT; monomer to dimer.

Entries after “also recorded” stand apart in the source; their conditions may differ.

As a reminder, the stoichiometry N is a count of units in the complex or per binding partner.

Consider AFTCHCRRSCYSTEYSYGTCTVMGINHRFCCL, for which, in data set [1], the not cleaved entry is recorded as “resistant to trypsin-catalyzed degradation”.

With “EPLQAEDDPLQAKAYEADAQEQRGANDQDFAVSFAEDASSSLRALGSTRAFTCHCRRSCYSTEYSYGTCTVMGINHRFCCL”, the cleaved bond result in data set [2] was “Arg68-Ala69”. In data set [1], the cleaved bond result is “Arg68-Ala69, 1 min” and the fragment found entry is given as “EPLQAEDDPLQAK, 1 min; also recorded: GANDQDFAVSFAEDASSSLR, 1 min”.

B1: proHD6 (81-residue propeptide of human α-defensin 6) (natural protein, UniProt Q01524 20-100, looked up)
chain: EPLQAEDDPLQAKAYEADAQEQRGANDQDFAVSFAEDASSSLRALGSTRAFTCHCRRSCYSTEYSYGTCTVMGINHRFCCL
notes: N-terminus EPLQ; Oxidatively folded regioisomer with the three native disulfide bonds (Cys4-Cys31, Cys6-Cys20, Cys10-Cys30, numbers count on mature HD6); Ulp1 cleavage leaves the native 81-residue peptide; also called HD6 propeptide; native proHD6; source: E. coli BL21(DE3) as His6-SUMO-proHD6, purified (Ni-NTA), Ulp1 digestion, reduction, oxidative folding, preparative HPLC; not shown: His6, …
For the molecule B1, in data set [3], the “stoichiometry N” value came out at 2.

The record behind these values is article PMC4827351 (Chemical Science, 2015).
